In patent US20120076775A1, “Combination of HGF Inhibitor and EGF Inhibitor to Treat Cancer” (priority 2008, published 2012):

Experiments:
U87EGFRvIII xenografts = test: U87EGFRvIII s.c. xenograft, tumor growth; format: in vivo; conditions: s.c. U87EGFRvIII in immunodeficient mice; mAbs i.p. 5 mg/kg days 8, 12, 15; erlotinib 150 mg/kg 6 times per week
Method: Illustrative but not limiting examples of immunodeficient strains of mice that can be used are nude mice such as CD-1 nude, Nu/Nu, Balb/c nude, NIH-III (NIH-bg-nu-xid BR); scid mice such as Fox Chase SCID (C.B-17 SCID), Fox Chase outbred SCID and SCID Beige; mice deficient in RAG enzyme; as well as nude rats. Experiments are carried out as described previously (Kim et al., Nature 362:841, 1992, which is incorporated herein by reference). Human tumor cells typically grown in complete DMEM medium are typically harvested in HBSS. Female immunodeficient, e.g., athymic nude mice (4-6 wks old) are injected s.c. with typically 5×10^6 cells in 0.2 ml of HBSS in the dorsal areas. When the tumor size reaches 50-100 mm^3, the mice are grouped randomly and appropriate amounts of the agents are administered. […] Tumor sizes are determined typically twice a week by measuring in two dimensions [length (a) and width (b)]. Tumor volume is calculated according to V=ab^2/2 and expressed as mean tumor volume±SEM. […] The effect of the agents may measured by growth of the tumor with time, prolongation of the survival of the mice, or increase in percent of the mice surviving at a given time or indefinitely. […]

[1] = tested on: U87EGFRvIII intracranial xenografts; test: U87EGFRvIII intracranial xenograft, survival; format: in vivo, mice; conditions: treated day 5 to 21, 5 mg/kg mAb twice per week, 150 mg erlotinib 6 times per week
Method: In this experiment, mice were implanted intracranially with U87EGFRvIII cells as described (Kim et al, op. cit.) in order to more accurately simulate brain tumors. Four groups of mice were treated with control mAb 5G8 or anti-HGF mAb L27, either alone or in combination with erlotinib, from post-implantation day 5 to 21 (5 mg/kg mAb twice per week; 150 mg erlotinib 6 times per week).

cMet receptor = cMet receptor (Homo sapiens, UniProt P08581); conditions: literature; read-out: Kd, high affinity binding site for cMet receptor; cited from earlier work
cMet receptor, sequence (P08581 25-1390): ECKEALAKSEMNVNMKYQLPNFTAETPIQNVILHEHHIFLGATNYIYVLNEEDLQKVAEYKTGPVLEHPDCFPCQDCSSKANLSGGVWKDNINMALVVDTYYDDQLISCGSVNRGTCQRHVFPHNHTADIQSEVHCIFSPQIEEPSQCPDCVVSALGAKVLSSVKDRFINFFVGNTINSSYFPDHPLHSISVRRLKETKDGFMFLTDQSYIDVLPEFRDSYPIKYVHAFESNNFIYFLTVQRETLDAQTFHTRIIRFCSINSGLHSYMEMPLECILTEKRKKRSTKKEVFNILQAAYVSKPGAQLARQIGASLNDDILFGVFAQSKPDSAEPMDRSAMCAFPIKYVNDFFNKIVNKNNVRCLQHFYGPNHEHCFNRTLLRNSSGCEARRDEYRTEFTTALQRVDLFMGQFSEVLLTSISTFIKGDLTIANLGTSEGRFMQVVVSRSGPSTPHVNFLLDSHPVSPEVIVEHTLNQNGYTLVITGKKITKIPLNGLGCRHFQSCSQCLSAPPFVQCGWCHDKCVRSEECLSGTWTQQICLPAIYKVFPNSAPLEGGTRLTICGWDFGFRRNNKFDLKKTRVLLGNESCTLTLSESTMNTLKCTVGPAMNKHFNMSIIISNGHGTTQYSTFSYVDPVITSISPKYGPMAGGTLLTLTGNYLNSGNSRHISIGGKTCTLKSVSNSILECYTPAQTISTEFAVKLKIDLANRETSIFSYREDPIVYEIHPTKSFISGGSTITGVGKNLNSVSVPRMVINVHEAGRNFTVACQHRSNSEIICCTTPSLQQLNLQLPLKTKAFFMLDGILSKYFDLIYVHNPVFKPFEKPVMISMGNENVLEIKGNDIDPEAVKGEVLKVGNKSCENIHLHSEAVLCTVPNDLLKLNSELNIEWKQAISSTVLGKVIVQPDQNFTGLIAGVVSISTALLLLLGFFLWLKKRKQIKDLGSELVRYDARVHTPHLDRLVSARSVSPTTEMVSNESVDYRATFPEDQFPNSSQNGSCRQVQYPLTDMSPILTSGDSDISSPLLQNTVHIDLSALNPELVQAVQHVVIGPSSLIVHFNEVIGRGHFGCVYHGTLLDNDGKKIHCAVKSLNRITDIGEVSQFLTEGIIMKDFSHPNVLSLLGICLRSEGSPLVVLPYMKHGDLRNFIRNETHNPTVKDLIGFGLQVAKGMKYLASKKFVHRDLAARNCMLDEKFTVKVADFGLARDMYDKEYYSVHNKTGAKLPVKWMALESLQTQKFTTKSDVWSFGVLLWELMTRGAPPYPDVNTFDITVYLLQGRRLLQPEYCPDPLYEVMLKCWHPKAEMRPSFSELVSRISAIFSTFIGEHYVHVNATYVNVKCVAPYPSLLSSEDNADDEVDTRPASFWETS

[2] = target: heparin sulfate proteoglycans (HSPG); conditions: literature; read-out: Kd, low affinity binding site for HSPG; cited from earlier work
[3] = tested on: GB-d1 gallbladder tumor xenografts; test: GB-d1 gallbladder tumor s.c. xenograft, tumor growth; format: in vivo; conditions: NIH III xid/Beige/nude mice, mAbs 100 μg (approx. 5 mg/kg) twice per week from day 13
Method: Human tumor cells typically grown in complete DMEM medium are typically harvested in HBSS. Female immunodeficient, e.g., athymic nude mice (4-6 wks old) are injected s.c. with typically 5×10^6 cells in 0.2 ml of HBSS in the dorsal areas. When the tumor size reaches 50-100 mm^3, the mice are grouped randomly and appropriate amounts of the agents are administered. […] Tumor sizes are determined typically twice a week by measuring in two dimensions [length (a) and width (b)]. Tumor volume is calculated according to V=ab^2/2 and expressed as mean tumor volume±SEM. The number of mice in each treatment group is at least 3, but more often between 5 and 10, e.g., 7. One group of mice is treated with both agents; other groups may be treated with neither agent or with one agent but not the other agent. […] Statistical analysis may be performed using, e.g., Student's t test.
For example, such an experiment was performed with GB-d1 gallbladder tumor xenografts. Female NIH III xid/Beige/nude mice (4-6 wks old) were implanted with tumors by s.c. injection of 10^6 GB-d1 cells in the dorsal areas. When the tumor size reached ˜100 mm^3, the mice were grouped randomly into 4 groups of 5 mice each. […] The mAbs were administered twice per week at 100 μg (approx. 5 mg/kg body weight) from day 13. Tumor sizes were determined twice per week as described above.

Q: Which “inhibition of growth of xenografts (FIG. 2)” value (U87EGFRvIII xenografts) does the source give for `C#Cc1cccc(Nc2ncnc3cc(OCCOC)c(OCCOC)cc23)c1` [erlotinib, N-(3-ethynylphenyl)-6,7-bis(2-methoxyethoxy)-4-quinazolinamine] here?
A: Its value is “only modestly inhibited growth of the tumors”.

Q: What about the “prolongation of survival (FIG. 3)” value [1] of the same molecule?
A: The value was “slightly but significantly prolonged survival”.

Q: For “HGF: 102 kDa heterodimeric polypeptide growth factor, ligand of cMet”, which Kd (cMet receptor) is on record?
A: The Kd was 0.2 nM.

Q: And the Kd [2]?
A: The Kd was 1 nM.

Q: With “HuL2G7: humanized L2G7 anti-HGF mAb; heavy and light chains SEQ ID NO:1 and 2” as the molecule, how does the “inhibition of tumor growth (FIG. 1)” value [3] read?
A: The value was “partially inhibited tumor growth”.
